According to patent publication US12274689B2, “Compound for the management of feline diabetes” (INCREVET, INC., priority 2019, dated 2025):

What was measured:
[1] = test system: healthy purpose-bred cats; experiment: urinary glucose excretion in healthy cats after capsule dosing (studies 1 and 2); type: in vivo, cat
db/db mice = experiment: non-fasting blood glucose in db/db mice, 28-day oral dosing (study 350); type: in vivo; details: for non-fasting blood glucose concentration: n = 8
human SGLT2 = target: T1, human SGLT2 (Homo sapiens, UniProt P31639); experiment: selectivity for human SGLT2 compared to human SGLT1
T1 sequence (P31639 1-672): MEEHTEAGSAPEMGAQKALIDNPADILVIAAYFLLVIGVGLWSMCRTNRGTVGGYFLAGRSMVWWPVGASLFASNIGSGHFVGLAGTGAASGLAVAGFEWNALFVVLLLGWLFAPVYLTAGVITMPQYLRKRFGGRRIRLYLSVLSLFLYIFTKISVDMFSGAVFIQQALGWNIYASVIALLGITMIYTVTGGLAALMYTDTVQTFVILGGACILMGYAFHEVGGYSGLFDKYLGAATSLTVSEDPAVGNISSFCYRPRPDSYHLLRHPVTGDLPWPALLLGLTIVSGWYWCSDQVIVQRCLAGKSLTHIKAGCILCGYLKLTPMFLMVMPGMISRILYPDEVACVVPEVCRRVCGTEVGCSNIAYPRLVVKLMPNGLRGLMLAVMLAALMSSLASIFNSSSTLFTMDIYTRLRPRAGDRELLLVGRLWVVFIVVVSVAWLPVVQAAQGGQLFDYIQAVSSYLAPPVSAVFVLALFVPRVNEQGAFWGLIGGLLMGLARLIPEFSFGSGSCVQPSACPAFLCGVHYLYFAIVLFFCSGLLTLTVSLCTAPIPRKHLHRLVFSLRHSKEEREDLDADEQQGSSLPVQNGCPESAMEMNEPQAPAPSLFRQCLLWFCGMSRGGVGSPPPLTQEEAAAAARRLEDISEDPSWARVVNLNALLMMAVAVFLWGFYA

## OC[C@H]1O[C@@H](c2ccc(Cl)c(Cc3ccc(OCCOC4CC4)cc3)c2)[C@H](O)[C@@H](O)[C@@H]1O [bexagliflozin, (2S,3R,4R,5S,6R)-2-(4-chloro-3-(4-(2-cyclopropoxyethoxy)benzyl)phenyl)-6-(hydroxymethyl)tetrahydro-2H-pyran-3,4,5-triol]
[1]; healthy cats
  doses with undesired effects attributed to SGLT1 inhibition, multiple of doses producing the maximum pharmacodynamic effect: 5 to 10 times
[1]; healthy cats exposed to the higher quantities
  loose stools and/or diarrhea: dose-dependent increase in the severity of loose stools and/or diarrhea
[1]; healthy cats, gelatin capsules, urinary glucose excretion over 24 h after dosing
  dose at which the maximum glucosuria was observed: approximately 3 mg kg^−1
db/db mice; 0.067 mg kg^−1 oral once a day, Day 0, mean ± SD
  non-fasting blood glucose concentration: 565.5 ± 75.9 mg/dL
db/db mice; 0.067 mg kg^−1 oral once a day, Day 1, 6 h post-dose, mean ± SD
  non-fasting blood glucose concentration: 526.0 ± 97.0 mg/dL
db/db mice; 0.067 mg kg^−1 oral once a day, Day 7, 6 h post-dose, mean ± SD
  non-fasting blood glucose concentration: 459.5 ± 69.9 mg/dL
db/db mice; 0.067 mg kg^−1 oral once a day, Day 14, 6 h post-dose, mean ± SD
  non-fasting blood glucose concentration: 441.7 ± 119.6 mg/dL
db/db mice; 0.067 mg kg^−1 oral once a day, Day 21, 6 h post-dose, mean ± SD
  non-fasting blood glucose concentration: 497.5 ± 98.8 mg/dL
db/db mice; 0.067 mg kg^−1 oral once a day, Day 28, 6 h post-dose, mean ± SD
  non-fasting blood glucose concentration: 472.1 ± 113.3 mg/dL
db/db mice; 0.067 mg kg^−1 oral once a day, Day −3, mean ± SD
  non-fasting blood glucose concentration: 563.6 ± 105.2 mg/dL
db/db mice; 0.2 mg kg^−1 oral once a day, Day 0, mean ± SD
  non-fasting blood glucose concentration: 590.0 ± 92.9 mg/dL
db/db mice; 0.2 mg kg^−1 oral once a day, Day 1, 6 h post-dose, mean ± SD
  non-fasting blood glucose concentration: 411.3 ± 86.8 mg/dL
db/db mice; 0.2 mg kg^−1 oral once a day, Day 7, 6 h post-dose, mean ± SD
  non-fasting blood glucose concentration: 390.8 ± 92.3 mg/dL
db/db mice; 0.2 mg kg^−1 oral once a day, Day 14, 6 h post-dose, mean ± SD
  non-fasting blood glucose concentration: 364.7 ± 121.6 mg/dL
db/db mice; 0.2 mg kg^−1 oral once a day, Day 21, 6 h post-dose, mean ± SD
  non-fasting blood glucose concentration: 379.8 ± 47.4 mg/dL
db/db mice; 0.2 mg kg^−1 oral once a day, Day 28, 6 h post-dose, mean ± SD
  non-fasting blood glucose concentration: 333.5 ± 79.9 mg/dL
db/db mice; 0.2 mg kg^−1 oral once a day, Day −3, mean ± SD
  non-fasting blood glucose concentration: 546.9 ± 92.8 mg/dL
db/db mice; 0.67 mg kg^−1 oral once a day, Day 0, mean ± SD
  non-fasting blood glucose concentration: 574.4 ± 90.5 mg/dL
db/db mice; 0.67 mg kg^−1 oral once a day, Day 1, 6 h post-dose, mean ± SD
  non-fasting blood glucose concentration: 404.3 ± 86.4 mg/dL
db/db mice; 0.67 mg kg^−1 oral once a day, Day 7, 6 h post-dose, mean ± SD
  non-fasting blood glucose concentration: 370.1 ± 96.5 mg/dL
db/db mice; 0.67 mg kg^−1 oral once a day, Day 14, 6 h post-dose, mean ± SD
  non-fasting blood glucose concentration: 379.6 ± 58.6 mg/dL
db/db mice; 0.67 mg kg^−1 oral once a day, Day 21, 6 h post-dose, mean ± SD
  non-fasting blood glucose concentration: 300.6 ± 97.6 mg/dL
db/db mice; 0.67 mg kg^−1 oral once a day, Day 28, 6 h post-dose, mean ± SD
  non-fasting blood glucose concentration: 306.7 ± 98.4 mg/dL
db/db mice; 0.67 mg kg^−1 oral once a day, Day −3, mean ± SD
  non-fasting blood glucose concentration: 565.5 ± 87.5 mg/dL
db/db mice; 2 mg kg^−1 oral once a day, Day 0, mean ± SD
  non-fasting blood glucose concentration: 541.6 ± 84.4 mg/dL
db/db mice; 2 mg kg^−1 oral once a day, Day 1, 6 h post-dose, mean ± SD
  non-fasting blood glucose concentration: 382.7 ± 111.9 mg/dL
db/db mice; 2 mg kg^−1 oral once a day, Day 7, 6 h post-dose, mean ± SD
  non-fasting blood glucose concentration: 330.8 ± 101.1 mg/dL
db/db mice; 2 mg kg^−1 oral once a day, Day 14, 6 h post-dose, mean ± SD
  non-fasting blood glucose concentration: 303.5 ± 74.0 mg/dL
db/db mice; 2 mg kg^−1 oral once a day, Day 21, 6 h post-dose, mean ± SD
  non-fasting blood glucose concentration: 319.7 ± 74.2 mg/dL
db/db mice; 2 mg kg^−1 oral once a day, Day 28, 6 h post-dose, mean ± SD
  non-fasting blood glucose concentration: 315.2 ± 81.3 mg/dL
db/db mice; 2 mg kg^−1 oral once a day, Day −3, mean ± SD
  non-fasting blood glucose concentration: 603.9 ± 88.9 mg/dL
db/db mice; 28-day administration of 0.067 mg kg^−1
  blood glucose values, % of control: 79.74%
db/db mice; 28-day administration of 0.2 mg kg^−1
  blood glucose values, % of control: 56.33%
db/db mice; 28-day administration of 0.67 mg kg^−1
  blood glucose values, % of control: 51.81%
db/db mice; 28-day administration of 2 mg kg^−1
  blood glucose values, % of control: 53.25%
db/db mice; sole agent, any dose group
  blood glucose, level below which it was not reduced: ≥ 300 mg/dL
Human SGLT2
  selectivity for human SGLT2 compared to human SGLT1: 2400 fold
